Patent US10570184B2, “GLP-1/glucagon receptor co-agonists for medical use” (Novo Nordisk A/S, priority 2014, dated 2020)
Starred links: 1 amine or outer side, 2 acyl side, 3 side chain; linkers in the order of their positions; H or OH if unused. Non-standard residues stand in square brackets, D forms with d. Residues, ends and D or L forms follow the SMILES beside them. Groups on a side chain read outwards from the residue. *: point of attachment. C18 diacid = O=C(O)CCCCCCCCCCCCCCCCC(=O)*; γGlu = O=C(O)[C@H](CCC(=O)[*:2])N[*:1]; AEEA = NCCOCCOCC(=O)O; Aib = CC(C)(N)C(=O)O

Molecular target: T1, human GLP-1 receptor (Homo sapiens, UniProt P43220)
T1 construct: expressed in transfected cells; host or cells: membranes of BHK cells (parent BHKTS13), clone FCW467-12A
T1 sequence (P43220 24-463): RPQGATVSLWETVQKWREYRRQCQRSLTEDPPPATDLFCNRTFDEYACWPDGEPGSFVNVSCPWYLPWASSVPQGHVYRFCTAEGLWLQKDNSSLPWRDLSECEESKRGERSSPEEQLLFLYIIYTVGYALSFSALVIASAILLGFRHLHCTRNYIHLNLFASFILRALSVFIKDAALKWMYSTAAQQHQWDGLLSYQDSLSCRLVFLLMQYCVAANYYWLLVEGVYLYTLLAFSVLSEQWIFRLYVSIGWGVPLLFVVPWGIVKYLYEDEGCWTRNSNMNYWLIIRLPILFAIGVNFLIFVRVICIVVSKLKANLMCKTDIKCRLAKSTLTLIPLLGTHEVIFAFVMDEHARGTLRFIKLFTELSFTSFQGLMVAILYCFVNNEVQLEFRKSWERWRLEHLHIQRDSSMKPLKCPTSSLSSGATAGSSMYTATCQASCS
Test: Assay (II)(a) GLP-1 receptor binding, 125I-GLP-1 displacement SPA on BHK membranes
Conditions: without presence of serum albumin; read-out: GLP-1R IC50 (nM) [Assay (II)(a)]
Outline: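 Membranes from BHK cells (clone FCW467-12A) stably expressing human GLP-1R were incubated with serially diluted compounds (8×10EE-13 to 8×10EE-7 M before addition) and [125I]-GLP-1-(7-36)NH2 with WGA SPA beads, 2 h at 30° C, pH 7.4. IC50 taken from displacement by non-linear regression. Run at ≤0.001% or 2.0% final serum albumin.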

Compound: CC[C@H](C)[C@H](NC(=O)[C@H](CC(C)C)NC(=O)[C@H](Cc1c[nH]c2ccccc12)NC(=O)[C@H](CCC(N)=O)NC(=O)[C@@H](NC(=O)[C@H](Cc1ccccc1)NC(=O)[C@H](CCC(=O)O)NC(=O)[C@H](CCCNC(=N)N)NC(=O)[C@H](C)NC(=O)[C@H](CCCNC(=N)N)NC(=O)[C@H](CCCNC(=N)N)NC(=O)[C@H](C)NC(=O)[C@H](CC(=O)O)NC(=O)[C@H](CC(C)C)NC(=O)[C@H](Cc1ccc(O)cc1)NC(=O)[C@H](CCCCN)NC(=O)[C@H](CO)NC(=O)[C@H](CC(C)C)NC(=O)[C@H](CC(=O)O)NC(=O)[C@H](CO)NC(=O)[C@@H](NC(=O)[C@H](Cc1ccccc1)NC(=O)[C@@H](NC(=O)CNC(=O)[C@H](CCC(N)=O)NC(=O)C(C)(C)NC(=O)[C@@H](N)Cc1c[nH]cn1)[C@@H](C)O)[C@@H](C)O)C(C)C)C(=O)N[C@@H](CO)C(=O)N[C@@H](CCCCNC(=O)CC[C@H](NC(=O)CC[C@H](NC(=O)COCCOCCNC(=O)COCCOCCNC(=O)CC[C@H](NC(=O)CCCCCCCCCCCCCCCCC(=O)O)C(=O)O)C(=O)O)C(=O)O)C(N)=O [Chem. 28, N^ε29-[(4S)-4-carboxy-4-[[(4S)-4-carboxy-4-[[2-[2-[2-[[2-[2-[2-[[(4S)-4-carboxy-4-(17-carboxyheptadecanoylamino)butanoyl]amino]ethoxy]ethoxy]acetyl]amino]ethoxy]ethoxy]acetyl]amino]butanoyl]amino]butanoyl]-[Aib2,Leu10,Ala16,Arg20,Glu21,Ile27,Ser28,Lys29]-Glucagon amide] (H-H[Aib]QGTFTSDLSKYLDARRAREFVQWLISK([γGlu-γGlu-AEEA-AEEA-γGlu-C18 diacid])-NH2; N-terminus assumed)
- IC50: 0.2 nM

Compound: CC[C@H](C)[C@H](NC(=O)[C@H](CC(C)C)NC(=O)[C@H](Cc1c[nH]c2ccccc12)NC(=O)[C@H](C)NC(=O)[C@@H](NC(=O)[C@H](Cc1ccccc1)NC(=O)[C@H](CC(=O)O)NC(=O)[C@H](CCCNC(=N)N)NC(=O)[C@H](C)NC(=O)[C@H](CCCNC(=N)N)NC(=O)[C@H](CCCNC(=N)N)NC(=O)[C@H](C)NC(=O)[C@H](CC(=O)O)NC(=O)[C@H](CC(C)C)NC(=O)[C@H](Cc1ccc(O)cc1)NC(=O)[C@H](CCCCN)NC(=O)[C@H](CO)NC(=O)[C@H](Cc1ccc(O)cc1)NC(=O)[C@H](CC(=O)O)NC(=O)[C@H](CO)NC(=O)[C@@H](NC(=O)[C@H](Cc1ccccc1)NC(=O)[C@@H](NC(=O)CNC(=O)[C@H](CCC(N)=O)NC(=O)C(C)(C)NC(=O)[C@@H](N)Cc1c[nH]cn1)[C@@H](C)O)[C@@H](C)O)C(C)C)C(=O)N[C@@H](CCCCNC(=O)CC[C@H](NC(=O)CC[C@H](NC(=O)COCCOCCNC(=O)COCCOCCNC(=O)CC[C@H](NC(=O)CCCCCCCCCCCCCCCCC(=O)O)C(=O)O)C(=O)O)C(=O)O)C(=O)N[C@H](C(N)=O)[C@@H](C)O [Chem. 32, N^ε28-[(4S)-4-carboxy-4-[[(4S)-4-carboxy-4-[[2-[2-[2-[[2-[2-[2-[[(4S)-4-carboxy-4-(17-carboxyheptadecanoylamino)butanoyl]amino]ethoxy]ethoxy]acetyl]amino]ethoxy]ethoxy]acetyl]amino]butanoyl]amino]butanoyl]-[Aib2,Ala16,Arg20,Ala24,Ile27,Lys28]-Glucagon amide] (H-H[Aib]QGTFTSDYSKYLDARRARDFVAWLIK([γGlu-γGlu-AEEA-AEEA-γGlu-C18 diacid])T-NH2)
- IC50: 0.3 nM
